± gives the expanded uncertainty stated by the source.
Columns and labels:
[1] = 101 kPa, Liquid; for viscosity: Concentric cylinders viscometry; for mass density: Vibrating tube method
[2] = wn = mass fraction of the nth substance listed; conditions: 101 kPa, Liquid; for viscosity: Concentric cylinders viscometry; for mass density: Vibrating tube method

## CCCCn1cc[n+](C)c1.N#CN=C=[N-] [1-butyl-3-methylimidazolium dicyanamide]
[1]; 303.15 K
  viscosity: 23.92 ± 0.27 mPa·s
  mass density: 1055.1 ± 1 kg/m3
[1]; 313.15 K
  viscosity: 17.12 ± 0.2 mPa·s
  mass density: 1049.3 ± 0.9 kg/m3
[1]; 333.15 K
  viscosity: 10.49 ± 0.15 mPa·s
  mass density: 1037.1 ± 0.9 kg/m3
[1]; 353.15 K
  viscosity: 6.773 ± 0.12 mPa·s
  mass density: 1024.2 ± 0.9 kg/m3
[1]; 363.15 K
  viscosity: 5.523 ± 0.12 mPa·s
  mass density: 1019.3 ± 0.9 kg/m3

## CCCCn1cc[n+](C)c1.F[B-](F)(F)F [1-butyl-3-methylimidazolium tetrafluoroborate]
[1]; 303.15 K
  viscosity: 71.63 ± 0.8 mPa·s
  mass density: 1191.3 ± 1.3 kg/m3
[1]; 313.15 K
  viscosity: 46.96 ± 0.5 mPa·s
  mass density: 1182.3 ± 1.2 kg/m3
[1]; 333.15 K
  viscosity: 23.8 ± 0.27 mPa·s
  mass density: 1166.7 ± 1.2 kg/m3
[1]; 353.15 K
  viscosity: 13.94 ± 0.18 mPa·s
  mass density: 1154.9 ± 1.2 kg/m3
[1]; 363.15 K
  viscosity: 11.32 ± 0.16 mPa·s
  mass density: 1139.4 ± 1.1 kg/m3

## CN(CCO)CCO [N-methyldiethanolamine]
[1]; 303.15 K
  viscosity: 58.62 ± 0.47 mPa·s
  mass density: 1034.7 ± 0.5 kg/m3
[1]; 313.15 K
  viscosity: 37.68 ± 0.32 mPa·s
  mass density: 1027.1 ± 0.5 kg/m3
[1]; 333.15 K
  viscosity: 15.26 ± 0.16 mPa·s
  mass density: 1013 ± 0.5 kg/m3
[1]; 353.15 K
  viscosity: 6.756 ± 0.11 mPa·s
  mass density: 996.3 ± 0.5 kg/m3
[1]; 363.15 K
  viscosity: 4.539 ± 0.11 mPa·s
  mass density: 993.9 ± 0.5 kg/m3

## CCn1cc[n+](C)c1.O=S(=O)([O-])C(F)(F)F [1-ethyl-3-methylimidazolium trifluoromethanesulfonate]
[1]; 303.15 K
  viscosity: 36.14 ± 0.39 mPa·s
  mass density: 1381.8 ± 1.7 kg/m3
[1]; 313.15 K
  viscosity: 26.65 ± 0.3 mPa·s
  mass density: 1371.7 ± 1.7 kg/m3
[1]; 333.15 K
  viscosity: 16.45 ± 0.2 mPa·s
  mass density: 1350.9 ± 1.6 kg/m3
[1]; 353.15 K
  viscosity: 12.17 ± 0.16 mPa·s
  mass density: 1338.7 ± 1.6 kg/m3
[1]; 363.15 K
  viscosity: 11.14 ± 0.15 mPa·s
  mass density: 1326 ± 1.6 kg/m3

## CN(CCO)CCO [N-methyldiethanolamine] + O
[2]; 303.15 K, w1 = 0.234
  viscosity: 2.285 ± 0.1 mPa·s
  mass density: 1018.7 ± 6 kg/m3
[2]; 303.15 K, w1 = 0.459
  viscosity: 2.85 ± 0.33 mPa·s
  mass density: 1018.3 ± 6 kg/m3
[2]; 313.15 K, w1 = 0.234
  viscosity: 1.612 ± 0.1 mPa·s
  mass density: 1014.1 ± 6 kg/m3
[2]; 313.15 K, w1 = 0.459
  viscosity: 2.238 ± 0.23 mPa·s
  mass density: 1011 ± 6 kg/m3
[2]; 333.15 K, w1 = 0.234
  viscosity: 1.418 ± 0.1 mPa·s
  mass density: 1003 ± 6 kg/m3
[2]; 333.15 K, w1 = 0.459
  viscosity: 1.621 ± 0.13 mPa·s
  mass density: 1005.2 ± 6 kg/m3
[2]; 353.15 K, w1 = 0.234
  viscosity: 1.121 ± 0.1 mPa·s
  mass density: 987.2 ± 6 kg/m3
[2]; 353.15 K, w1 = 0.459
  viscosity: 1.485 ± 0.11 mPa·s
  mass density: 989.6 ± 6 kg/m3
[2]; 363.15 K, w1 = 0.234
  viscosity: 1.112 ± 0.1 mPa·s
  mass density: 981.3 ± 6 kg/m3
[2]; 363.15 K, w1 = 0.459
  viscosity: 1.337 ± 0.1 mPa·s
  mass density: 971.8 ± 6 kg/m3
